Measured values as given in patent US12180187B2, “1-phenyl-5-azinylpyrazolyl-3-oxyalkyl acids and their use for controlling unwanted plant growth” (BAYER AKTIENGESELLSCHAFT, priority 2019, dated 2024).

Assays:
VERPE = experiment: Pre-emergence action against VERPE, 1280 g/ha; format: in vivo, Veronica persica; conditions: scored visually after about 3 weeks vs untreated controls (100% = plants have died); for pest or weed control at 1280 g/ha: Veronica persica, 504 h
Summary of the method: (§1)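 Sandy loam pots, seeds covered with soil; aqueous WP/EC spray on covering soil, 0.5% additive, 600 L/ha. Greenhouse growth, good conditions. Readout: visual % activity at ~3 weeks (0% = like control, 100% = dead).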

AVEFA = experiment: Post-emergence action at 320 g/ha against AVEFA; format: in vivo; conditions: visual rating about 3 weeks after treatment vs untreated controls; for pest or weed control at 320 g/ha: Avena fatua, 504 h
Summary of the method: (§2)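 Visual % activity vs untreated controls (0% = like control, 100% = plants dead), scored ~3 wk after treatment. Plants were grown in sandy loam in a greenhouse and sprayed on green parts at the one-leaf stage (2–3 wk post-sowing). Spray: WP or EC in water, 0.5% additive, 600 l/ha.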

DIGSA [1] = experiment: Pre-emergence action against DIGSA, 1280 g/ha; format: in vivo, Digitaria sanguinalis; conditions: visual scoring after about 3 weeks vs untreated controls, 100% = plants have died, 0% = like control plants
Summary of the method: as §1

PHBPU [2] = experiment: Post-emergence action at 320 g/ha against PHBPU; format: in vivo; conditions: visual rating about 3 weeks after treatment vs untreated controls
Summary of the method: as §2

ABUTH = experiment: Post-emergence action at 320 g/ha against ABUTH; format: in vivo, Abutilon theophrasti; conditions: visual rating about 3 weeks after treatment vs untreated controls
From the text: Accordingly, the compounds of the invention have good herbicidal action against a broad spectrum of weed grasses and broad-leaved weeds and are therefore suitable for controlling unwanted vegetation by the post-emergence method. • b) Seeds of monocotyledonous and dicotyledonous weeds and crop plants are placed in sandy loam in plastic or organic planting pots, covered with soil and cultivated in a greenhouse under controlled growth conditions. 2 to 3 weeks after sowing, the test plants are treated at the one-leaf stage. The compounds of the invention, formulated in the form of wettable powders (WP) or as emulsion concentrates (EC), are then sprayed onto the green parts of the plants as aqueous suspension or emulsion with addition of 0.5% additive at a water application rate of 600 l/ha (converted). After the test plants have been kept in the greenhouse under optimum growth conditions for about 3 weeks, the activity of the preparations is rated visually in comparison to untreated controls. For example, 100% activity=the plants have died, 0% activity=like control plants. Tables 39 to 49 below show the effects of selected compounds of the general formula (I) according to Tables 1 and 2 on various harmful plants and at an application rate corresponding to 320 g/ha, which were obtained by the experimental procedure mentioned above.

LOLRI = experiment: Pre-emergence action against LOLRI, 1280 g/ha; format: in vivo, Lolium rigidum; conditions: visual scoring after about 3 weeks vs untreated controls, 100% = plants have died, 0% = like control plants; for pest or weed control at 1280 g/ha: Lolium rigidum, 504 h
Summary of the method: as §1

ECHCG = experiment: Post-emergence action at 320 g/ha against ECHCG; format: in vivo, Echinochloa crus-galli; conditions: dosage 320 g/ha, visual rating about 3 weeks after treatment vs untreated controls (100% = plants died)
Summary of the method: as §2

DIGSA [3] = experiment: Post-emergence action at 320 g/ha against DIGSA; format: in vivo, Digitaria sanguinalis; conditions: dosage 320 g/ha, visual rating about 3 weeks after treatment vs untreated controls (100% = plants died); for pest or weed control at 320 g/ha: Digitaria sanguinalis, 504 h
Summary of the method: as §2

ALOMY = experiment: Pre-emergence action against ALOMY, 1280 g/ha; format: in vivo, Alopecurus myosuroides; conditions: visual scoring after about 3 weeks vs untreated controls, 100% = plants have died, 0% = like control plants
Summary of the method: as §1

AMARE = experiment: Post-emergence action against AMARE, 1.28 kg/ha; format: in vivo, Amaranthus retroflexus; conditions: dosage 1280 g/ha, visual rating about 3 weeks after treatment vs untreated controls (100% = plants died)
Summary of the method: (§3)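 Weeds grown in sandy loam in a greenhouse were sprayed at the one-leaf stage, 2–3 weeks after sowing, with WP or EC formulations in water containing 0.5% additive at 600 L/ha. About 3 weeks later, damage was scored visually versus untreated controls (0% = like control, 100% = dead).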

VIOTR = experiment: Post-emergence action at 320 g/ha against VIOTR; format: in vivo, Viola tricolor; conditions: visual rating about 3 weeks after treatment vs untreated controls
Summary of the method: as §2

SETVI = experiment: Post-emergence action against SETVI, 1.28 kg/ha; format: in vivo, Setaria viridis; conditions: dosage 1280 g/ha, visual rating about 3 weeks after treatment vs untreated controls
Summary of the method: as §3

STEME = experiment: Post-emergence action against STEME, 1.28 kg/ha; format: in vivo, Stellaria media; conditions: dosage 1280 g/ha, visual rating about 3 weeks after treatment vs untreated controls (100% = plants died)
Summary of the method: as §3

PHBPU [4] = experiment: Pre-emergence action at 320 g/ha against PHBPU; format: in vivo; conditions: visual scoring after about 3 weeks vs untreated controls
Summary of the method: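 Application: aqueous WP or EC with 0.5% additive on soil covering seeds, 600 l/ha. Read-out: visual percent damage after ~3 weeks in greenhouse, untreated pots as reference.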

KCHSC = experiment: Post-emergence action against KCHSC, 1.28 kg/ha; format: in vivo, Bassia scoparia; conditions: dosage 1280 g/ha, visual rating about 3 weeks after treatment vs untreated controls (100% = plants died)
Summary of the method: as §3

C=CCNC(=O)COc1nn(-c2ccccc2F)c(-c2ccc(F)nc2)c1Br [Example X-001, N-Allyl-2-{[4-bromo-1-(2-fluorophenyl)-5-(6-fluoropyridin-3-yl)-1H-pyrazol-3-yl]oxy}acetamide]
pest or weed control at 1280 g/ha (VERPE): 100% | pest or weed control at 320 g/ha (AVEFA): 90% | Pre-emergence action against DIGSA (DIGSA [1]): 100% | Post-emergence action against PHBPU in % (PHBPU [2]): 80% | Post-emergence action against ABUTH in % (ABUTH): 80% | pest or weed control at 1280 g/ha (LOLRI): 100% | Post-emergence action at 320 g/ha against ECHCG in % (ECHCG): 80% | pest or weed control at 320 g/ha (DIGSA [3]): 80% | Pre-emergence action against ALOMY (ALOMY): 90% | Post-emergence action against AMARE (AMARE): 90%

CS(=O)(=O)NC(=O)COc1nn(-c2ccccc2F)c(-c2ccc(F)nc2)c1Br [Example X-004]
Pre-emergence action against VERPE (VERPE): 90% | Post-emergence action against AVEFA in % (AVEFA): 90% | Pre-emergence action against DIGSA (DIGSA [1]): 90% | Post-emergence action against PHBPU in % (PHBPU [2]): 90% | Post-emergence action against ABUTH in % (ABUTH): 80% | Pre-emergence action against LOLRI (LOLRI): 100% | Post-emergence action against VIOTR in % (VIOTR): 80% | Post-emergence action against SETVI (SETVI): 90% | Post-emergence action at 320 g/ha against ECHCG in % (ECHCG): 90% | Post-emergence action at 320 g/ha against DIGSA in % (DIGSA [3]): 90% | Pre-emergence action against ALOMY (ALOMY): 90% | Post-emergence action against AMARE (AMARE): 100% | Post-emergence action against STEME (STEME): 100%

CN(C)S(=O)(=O)NC(=O)COc1nn(-c2ccccc2F)c(-c2ccc(F)nc2)c1Br [Example X-005]
Pre-emergence action against VERPE (VERPE): 100% | Post-emergence action against AVEFA in % (AVEFA): 90% | Pre-emergence action against DIGSA (DIGSA [1]): 100% | Post-emergence action against PHBPU in % (PHBPU [2]): 80% | Pre-emergence action against LOLRI (LOLRI): 100% | Pre-emergence action against PHBPU in % (PHBPU [4]): 90% | Post-emergence action against VIOTR in % (VIOTR): 80% | Post-emergence action against SETVI (SETVI): 90% | Post-emergence action at 320 g/ha against ECHCG in % (ECHCG): 80% | Post-emergence action at 320 g/ha against DIGSA in % (DIGSA [3]): 90% | Pre-emergence action against ALOMY (ALOMY): 100% | Post-emergence action against AMARE (AMARE): 100% | Post-emergence action against STEME (STEME): 90%

COC(=O)[C@@H](C)Oc1nn(-c2ccccc2F)c(-c2cncnc2)c1Br [VI-011, Methyl (2R)-2-{[4-bromo-1-(2-fluorophenyl)-5-(pyrimidin-5-yl)-1H-pyrazol-3-yl]oxy}propanoate]
pest or weed control at 1280 g/ha (VERPE): 100% | pest or weed control at 320 g/ha (AVEFA): 90% | Pre-emergence action against DIGSA (DIGSA [1]): 100% | Post-emergence action against ABUTH in % (ABUTH): 90% | pest or weed control at 1280 g/ha (LOLRI): 100% | Pre-emergence action against PHBPU in % (PHBPU [4]): 90% | pest or weed control at 320 g/ha (VIOTR; Viola tricolor, 504 h): 90% | Post-emergence action against SETVI (SETVI): 100% | pest or weed control at 320 g/ha (DIGSA [3]): 90% | Pre-emergence action against ALOMY (ALOMY): 90% | Post-emergence action against STEME (STEME): 100% | Post-emergence action against KCHSC (KCHSC): 90%

COC(=O)[C@@H](C)Oc1nn(-c2ccccc2)c(-c2cncnc2)c1Br [VI-013]
Pre-emergence action against VERPE (VERPE): 100% | Post-emergence action against AVEFA in % (AVEFA): 80% | Pre-emergence action against DIGSA (DIGSA [1]): 100% | Post-emergence action against PHBPU in % (PHBPU [2]): 80% | Post-emergence action against ABUTH in % (ABUTH): 80% | Pre-emergence action against LOLRI (LOLRI): 100% | Post-emergence action against VIOTR in % (VIOTR): 90% | Post-emergence action against SETVI (SETVI): 90% | Post-emergence action at 320 g/ha against DIGSA in % (DIGSA [3]): 90% | Pre-emergence action against ALOMY (ALOMY): 90% | Post-emergence action against AMARE (AMARE): 90% | Post-emergence action against STEME (STEME): 100% | Post-emergence action against KCHSC (KCHSC): 100%
